Test results reported in patent US6509328B1, “Glutamate receptor antagonists” (Hoffmann-La Roche Inc., priority 1999, dated 2003).

What was measured:
rat mGlu2 receptor = biological target: T1, rat mGlu2 receptor (Rattus norvegicus, UniProt P31421); experiment: [3H]-LY354740 binding on mGlu2 transfected CHO cell membranes
T1 construct: expressed in transfected cells; vector pcDNA I-amp (pcD1mGR2)
Source text: [^3H]-LY354740 Binding on mGlu2 Transfected CHO Cell Membranes
Transfection and Cell Culture
cDNA encoding the rat mGlu2 receptor protein in pBluescript II was obtained from Prof. S. Nakanishi (Kyoto, Japan), and subcloned into the eukaryotic expression vector pcDNA I-amp from Invitrogen (N V Leek, The Netherlands). This vector construct (pcD1mGR2) was co-transfected with a psvNeo plasmid encoding the gene for neomycin resistance, into CHO cells by a modified calcium phosphate method described by Chen & Okayama (1988). The cells were maintained in Dulbecco's Modified Eagle medium with reduced L-glutamine (2 mM final concentration) and 10% dialysed foetal calf serum from Gibco BRL (Basel, Switzerland). Selection was made in the presence of […] (1000 ug/ml final). Clones were identified by reverse transcription of 5 μg total RNA, followed by PCR using mGlu2 receptor specific primers 5′-[…]-3′ and 5′-[…]-3′ in 60 mM Tris HCl (pH 10), 15 mM (NH4)2SO4, 2 mM MgCl2, 25 units/ml Taq Polymerase with 30 cycles annealing at 60° C. for 1 min., extension at 72° C. for 30s, and 1 min. 95° C. denaturation.
Cells, cultured as above, were harvested and washed three times with cold PBS and frozen at −80° C. The pellet was resuspended in cold 20 mM HEPES-NaOH buffer containing 10 mM EDTA (pH 7.4), and homogenised with a polytron (Kinematica, AG, Littau, Switzerland) for 10s at 10,000 rpm. After centrifugation for 30 min. at 4° C., the pellet was washed once with the same buffer, and once with cold 20 mM HEPES-NaOH buffer containing 0.1 mM EDTA, (pH 7.4). Protein content was measured using the Pierce method (Socochim, Lausanne, Switzerland) using bovine serum albumin as standard.
After thawing, the membranes were resuspended in cold 50 mM Tris-HCl buffer containing 2 mM MgCl2 and 2 mM CaCl2, (pH 7) (binding buffer). The final concentration of the membranes in the assays was 25 μg protein/ml. Inhibition experiments were performed with membranes incubated with 10 nM [^3H]-LY354740 at room temperature, for 1 hour, in presence of various concentrations of the compound to be tested. Following the incubations, membranes were filtered onto Whatmann GF/C glass fiber filters and washed 5 times with cold binding buffer. Non specific binding was measured in the presence of 10 μM DCG IV (TOCRIS No. 0975). After transfer of the filters into plastic vials containing 10 ml of Ultima-gold scintillation fluid (Packard, Zürich, Switzerland), the radioactivity was measured by liquid scintillation in a Tri-Carb 2500 TR counter (Packard, Zürich, Switzerland).
The inhibition curves were fitted with a four parameter logistic equation giving IC50 values, and Hill coefficients.

T1 sequence (P31421 19-872): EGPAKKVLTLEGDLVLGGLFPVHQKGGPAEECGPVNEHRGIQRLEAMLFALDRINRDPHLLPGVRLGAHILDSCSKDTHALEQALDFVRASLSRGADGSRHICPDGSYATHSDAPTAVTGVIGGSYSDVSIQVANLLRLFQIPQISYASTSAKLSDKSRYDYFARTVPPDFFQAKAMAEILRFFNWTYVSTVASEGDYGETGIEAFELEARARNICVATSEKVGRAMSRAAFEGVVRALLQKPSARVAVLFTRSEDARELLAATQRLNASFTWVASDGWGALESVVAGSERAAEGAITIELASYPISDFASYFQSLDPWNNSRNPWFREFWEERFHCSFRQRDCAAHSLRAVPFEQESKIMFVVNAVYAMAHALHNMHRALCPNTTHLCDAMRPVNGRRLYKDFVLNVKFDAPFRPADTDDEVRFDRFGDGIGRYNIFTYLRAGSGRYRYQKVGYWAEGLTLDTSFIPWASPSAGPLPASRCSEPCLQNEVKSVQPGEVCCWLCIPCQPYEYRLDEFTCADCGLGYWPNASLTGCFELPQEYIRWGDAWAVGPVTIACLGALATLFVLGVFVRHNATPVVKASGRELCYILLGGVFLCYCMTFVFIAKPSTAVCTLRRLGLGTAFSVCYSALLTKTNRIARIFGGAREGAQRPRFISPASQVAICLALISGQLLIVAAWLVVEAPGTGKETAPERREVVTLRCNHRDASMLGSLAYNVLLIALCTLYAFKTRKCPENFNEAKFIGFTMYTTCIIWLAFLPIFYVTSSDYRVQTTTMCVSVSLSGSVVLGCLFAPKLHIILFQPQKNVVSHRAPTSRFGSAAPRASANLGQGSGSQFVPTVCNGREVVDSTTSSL

| Compound | Ki (rat mGlu2 receptor) [µM] | melting point |
| --- | --- | --- |
| O=C1CC(c2cccc(-n3ccnn3)c2)=Nc2ccc(-c3cccc(F)c3F)cc2N1 [Example 129, 8-(2,3-Difluoro-phenyl)-4-(3-[1,2,3]triazol-1-yl-phenyl)-1,3-dihydro-benzo[b][1,4]diazepin-2-one] | 0.013 | – |
| O=C1CC(c2csc(-n3ccnc3)n2)=Nc2ccc(-c3ccccc3F)cc2N1 [Example 124, 8-(2-Fluoro-phenyl)-4-(2-imidazol-1-yl-thiazol-4-yl)-1,3-dihydro-benzo [b][1,4]diazepin-2-one] | 0.298 | 194 to 197 °C |
| N#Cc1cccc(C2=Nc3ccc(I)cc3NC(=O)C2)c1 [Example 1, 3-(7-Iodo-4-oxo-4,5-dihydro-3H-benzo[b][1,4]diazepin-2-yl)-benzonitrile] | 0.017 | 198 to 200 °C (dec.) |
| O=C1CC(c2cccc(-c3nc(CO)cs3)c2)=Nc2ccc(-c3ccccc3F)cc2N1 [Example 157, 8-(2-Fluoro-phenyl)-4-[3-(4-hydroxymethyl-thiazol-2-yl)-phenyl]-1,3-dihydro-benzo[b][1,4]diazepin-2-one] | 0.016 | – |
| N#Cc1cc(C2=Nc3ccc(C#Cc4ccccc4)cc3NC(=O)C2)ccn1 [Example 98, 4-(4-Oxo-7-phenylethynyl-4,5-dihydro-3H-benzo [b][1,4]diazepin-2-yl)-pyridine-2-carbonitrile] | 0.039 | – |
| O=C1CC(c2cccc(-n3ccnn3)c2)=Nc2ccc(-c3ccccc3F)cc2N1 [Example 110, 8-(2-Fluoro-phenyl)-4-(3-[1,2,3]triazol-1-yl-phenyl)-1,3-dihydro-benzo [b][1,4]diazepin-2-one] | 0.008 | – |
| Cc1nnc(-c2cccc(C3=Nc4ccc(-c5ccc(F)cc5)cc4NC(=O)C3)c2)n1C [Example 166, 4-[3-(4,5-Dimethyl-4H-[1,2,4]triazol-3-yl)-phenyl]-8-(4-fluoro-phenyl)-1,3-dihydro-benzo[b][1,4]diazepin-2-one] | 0.108 | 238 to 240 °C (dec.) |
| O=C1CC(c2cccc(-n3cnnn3)c2)=Nc2ccc(C#Cc3ccc(F)cc3)cc2N1 [Example 87, 8-(4-Fluoro-phenylethynyl)-4-(3-tetrazol-1-yl-phenyl)-1,3-dihydro-benzo [b][1,4]diazepin-2-one] | 0.036 | – |
| O=C1CC(c2cccc(-n3ccnc3)c2)=Nc2ccc(-c3ccc(F)cc3O)cc2N1 [Example 80, 8-(4-Fluoro-2-hydroxy-phenyl)-4-(3-imidazol-1-yl-phenyl)-1,3-dihydro-benzo[b][1,4]diazepin-2-one] | 0.17 | 220 °C |
| Cc1cc(F)ccc1-c1ccc2c(c1)NC(=O)CC(c1cccc(-n3ccnc3)c1)=N2 [Example 79, 8-(4-Fluoro-2-methyl-phenyl)-4-(3-imidazol-1-yl-phenyl)-1,3-dihydro-benzo[b][1,4]diazepin-2-one] | 0.05 | 170 to 172 °C |
| N#Cc1cc(C2=Nc3ccc(-c4ccc(F)cc4F)cc3NC(=O)C2)ccn1 [Example 104, 4-[7-(2,4-Difluoro-phenyl)-4-oxo-4,5-dihydro-3H-benzo [b][1,4]diazepin-2-yl]-pyridine-2-carbonitrile] | 0.026 | 250 to 253 °C |
| O=C1CC(c2cccc(-n3ccnn3)c2)=Nc2ccc(-c3ccc(F)cc3F)cc2N1 [Example 123, 8-(2,4-Difluoro-phenyl)-4-(3-[1,2,3]triazol-1-yl-phenyl)-1,3-dihydro-benzo [b][1,4]diazepin-2-one] | 0.01 | – |
| O=C1CC(c2cccc(-n3ccnc3)c2)=Nc2ccc(C#Cc3ccc(F)cc3)cc2N1 [Example 58, 8-(4-Fluoro-phenylethynyl)-4-(3-imidazol-1-yl-phenyl)-1,3-dihydro-benzo [b][1,4]diazepin-2-one] | 0.004 | 216 to 218 °C |
| O=C1CC(c2cccc(-n3ccnc3)c2)=Nc2ccc(C#Cc3ccccc3)cc2N1 [Example 52] | 0.006 | 193 to 196 °C |
| O=C1CC(c2ccnc(-n3ccnc3)c2)=Nc2ccc(C#Cc3ccc(F)cc3)cc2N1 [Example 68, 8-(4-Fluoro-phenylethynyl)-4-(2-imidazol-1-yl-pyridin-4-yl)-1,3-dihydro-benzo[b][1,4]diazepin-2-one] | 0.004 | 206 °C (dec.) |
| O=C1CC(c2cccc(-n3cncn3)c2)=Nc2ccc(C#Cc3ccc(F)cc3)cc2N1 [Example 62, 8-(4-Fluoro-phenylethynyl)-4-(3-[1,2,4]triazol-1-yl-phenyl)-1,3-dihydro-benzo[b][1,4]diazepin-2-one] | 0.049 | 217 to 218 °C |
| O=C1CC(c2cccc(Cl)c2)=Nc2ccc(C#Cc3ccccc3)cc2N1 [Example 5, 4-(3-Chloro-phenyl)-8-phenylethynyl-1,3-dihydro-benzo[b][1,4]diazepin-2-one] | 0.04 | – |
| Cc1cc(-c2cccc(C3=Nc4ccc(-c5ccc(F)cc5)cc4NC(=O)C3)c2)on1 [Example 117, 8-(4-Fluoro-phenyl)-4-[3-(3-methyl-isoxazol-5-yl)-phenyl]-1,3-dihydro-benzo[b][1,4]diazepin-2-one] | 0.289 | > 250 °C |
| N#Cc1ccsc1C1=CC(=O)Nc2cc(-c3ccc(F)cc3)ccc2N1 [Example 83, 2-[7-(4-Fluoro-phenyl)-4-oxo-4,5-dihydro-1H-benzo [b][1,4]diazepin-2-yl]-thiophene-3-carbonitrile] | 0.25 | 239 to 240 °C |
| N#Cc1cccc(C2=Nc3ccc(-c4ccc(F)cc4)cc3NC(=O)C2)c1 [Example 57, 3-[7-(4-Fluoro-phenyl)-4-oxo-4,5-dihydro-3H-benzo[b][1,4]diazepin-2-yl]-benzonitrile] | 0.055 | – |
| Cc1cn(-c2cccc(C3=Nc4ccc(-c5ccc(F)cc5)cc4NC(=O)C3)c2)cn1 [Example 76, 8-(4-Fluoro-phenyl)-4-[3-(4-methyl-imidazol-1-yl)-phenyl]-1,3-dihydro-benzo [b][1,4]diazepin-2-one] | 0.016 | 215 °C |
| O=C1CC(c2cccc(-c3nc(C(=O)O)cs3)c2)=Nc2ccc(-c3ccccc3F)cc2N1 [Example 160, 2-{3-[7-(2-Fluoro-phenyl)-4-oxo-4,5-dihydro-3H-benzo [b][1,4]diazepin-2-yl]-phenyl}-thiazole-4-carboxylic Acid] | 0.016 | – |
